Values quoted from earlier work as cited in patent publication US10806871B2, “Inhalable dry powders” (priority 2012, dated 2020).

Tests used:
[1] = listing, cf. PCT Publication WO/2004/062643; cited from earlier work
[2] = listing; cited from earlier work

Cc1c(OCC(F)(F)F)ccnc1C[S+]([O-])c1nc2ccccc2[nH]1 (stereo not shown) [Lansoprazole]
Solubility In Water [1]: Insoluble

CC1CC(OC(=O)C(O)c2ccccc2)CC(C)(C)C1 (stereo not shown) [Cyclandelate]
Bioavailability [2]: Low | Solubility In Water [1]: Insoluble

NC(N)=Nc1nc(CSCCC(N)=NS(N)(=O)=O)cs1 [Famotidine]
Bioavailability [2]: Low

Cc1nnc2n1-c1ccc(Cl)cc1C(c1ccccc1)=NC2 [Alprazolam]
Solubility In Water [1]: Insoluble

CN1C(C(=O)Nc2ccccn2)=C(O)c2ccccc2S1(=O)=O [Piroxicam]
Solubility In Water [1]: Sparingly

OC(CCN1CCCCC1)(c1ccccc1)C1CC2C=CC1C2 (stereo not shown) [Biperiden]
Bioavailability [2]: Low | Solubility In Water [1]: Sparingly soluble

CC1=C(/C=C/C(C)=C/C=C/C(C)=C\C(=O)O)C(C)(C)CCC1 [Isotretinoin]
Solubility In Water [1]: Insoluble

COc1cc(N)c(Cl)cc1C(=O)NC1CCN(CCCOc2ccc(F)cc2)CC1OC (stereo not shown) [Cisapride]
Bioavailability [2]: Low | Solubility In Water [1]: Insoluble

Cc1ncc2n1-c1ccc(Cl)cc1C(c1ccccc1F)=NC2 [Midazolam]
Solubility In Water [1]: Insoluble

C[C@@](Cc1ccc(O)c(O)c1)(NN)C(=O)O [Carbidopa]
Solubility In Water [1]: Slightly

OCCN1CCN(CCCN2c3ccccc3Sc3ccc(Cl)cc32)CC1 [Perphenazine]
Bioavailability [2]: Low

CCOC(=O)[C@H](CCc1ccccc1)N[C@@H](C)C(=O)N1CCC[C@H]1C(=O)O [Enalapril]
Solubility In Water [1]: Sparingly

CN1CCCC(n2nc(Cc3ccc(Cl)cc3)c3ccccc3c2=O)CC1 (stereo not shown) [Azelastine]
Solubility In Water [1]: Insoluble

Nc1nnc(-c2cccc(Cl)c2Cl)c(N)n1 [Lamotrigine]
Solubility In Water [1]: Slightly

O=[N+]([O-])O[C@H]1CO[C@H]2[C@@H]1OC[C@H]2O[N+](=O)[O-] [Isosorbide dinitrate]
Bioavailability [2]: Low

CCOC(=O)C1=C(COCCN)NC(C)=C(C(=O)OC)C1c1ccccc1Cl (stereo not shown) [Amlodipine]
Solubility In Water [1]: Slightly

C#C[C@]1(O)CC[C@H]2[C@@H]3CCC4=Cc5oncc5C[C@]4(C)[C@H]3CC[C@@]21C [Danazol]
Bioavailability [2]: Low

CC(C)(C)c1ccc(C(O)CCCN2CCC(C(O)(c3ccccc3)c3ccccc3)CC2)cc1 (stereo not shown) [Terfenadine]
Solubility In Water [1]: Slightly

COC(=O)C1=C(C)NC(C)=C(C(=O)OC(C)C)C1c1cccc2nonc12 (stereo not shown) [Isradipine]
Bioavailability [2]: Low | Solubility In Water [1]: Insoluble

OCCN(CCO)c1nc(N2CCCCC2)c2nc(N(CCO)CCO)nc(N3CCCCC3)c2n1 [Dipyridamole]
Solubility In Water [1]: Slightly

CCn1cc(C(=O)O)c(=O)c2cc(F)c(N3CCNCC3)cc21 [Norfloxacin]
Bioavailability [2]: Low

COc1ccc2[nH]c([S+]([O-])Cc3ncc(C)c(OC)c3C)nc2c1 (stereo not shown) [Omeprazole]
Solubility In Water [1]: Slightly

CC(CCc1ccc(O)cc1)NCCc1ccc(O)c(O)c1 (stereo not shown) [Dobutamine]
Solubility In Water [1]: Sparingly

CC(C)(C)NC(=O)[C@H]1CC[C@H]2[C@@H]3CC[C@H]4NC(=O)C=C[C@]4(C)[C@H]3CC[C@]12C [Finasteride]
Solubility In Water [1]: Insoluble

CC(C)Cc1ccc(C(C)C(=O)O)cc1 (stereo not shown) [Ibuprofen]
Solubility In Water [1]: Insoluble

CCc1cccc2c3c([nH]c12)C(CC)(CC(=O)O)OCC3 (stereo not shown) [Etodolac]
Solubility In Water [1]: Insoluble

CN1CCC[C@@H]1CCO[C@](C)(c1ccccc1)c1ccc(Cl)cc1 [Clemastine]
Bioavailability [2]: Low | Solubility In Water [1]: Slightly soluble

COc1cc([C@@H]2c3cc4c(cc3[C@@H](O[C@@H]3O[C@@H]5CO[C@@H](C)O[C@H]5[C@H](O)[C@H]3O)[C@H]3COC(=O)[C@H]23)OCO4)cc(OC)c1O [Etoposide]
Solubility In Water [1]: Very Slightly

CCOC(=O)[C@H](CCc1ccccc1)N[C@@H](C)C(=O)N1[C@H](C(=O)O)C[C@@H]2CCC[C@@H]21 [Ramipril]
Solubility In Water [1]: Insoluble

C[C@]12CC[C@H]3[C@@H](CCC4=CC(=O)CC[C@@]43C)[C@@H]1CC[C@@H]2O [Testosterone]
Bioavailability [2]: Low | Solubility In Water [1]: Insoluble

CC[C@H]1OC(=O)[C@H](C)[C@@H](O[C@H]2C[C@@](C)(OC)[C@@H](O)[C@H](C)O2)[C@H](C)[C@@H](O[C@@H]2O[C@H](C)C[C@H](N(C)C)[C@H]2O)[C@](C)(OC)C[C@@H](C)C(=O)[C@H](C)[C@@H](O)[C@]1(C)O [Clarithromycin]
Solubility In Water [1]: Insoluble

Cn1cnc([N+](=O)[O-])c1Sc1ncnc2nc[nH]c12 [Azathioprine]
Solubility In Water [1]: Insoluble

CC(=O)O[C@H]1C(=O)[C@@]2(C)[C@H]([C@H](OC(=O)c3ccccc3)[C@]3(O)C[C@H](OC(=O)[C@H](O)[C@@H](NC(=O)c4ccccc4)c4ccccc4)C(C)=C1C3(C)C)[C@]1(OC(C)=O)CO[C@@H]1C[C@@H]2O [Paclitaxel]
Solubility In Water [1]: Insoluble

OCCN1CCN(CCCN2c3ccccc3Sc3ccc(C(F)(F)F)cc32)CC1 [Fluphenazine]
Bioavailability [2]: Low | Solubility In Water [1]: Insoluble

CCOC(=O)C1=C(C)NC(C)=C(C(=O)OC)C1c1cccc(Cl)c1Cl (stereo not shown) [Felodipine]
Bioavailability [2]: Low | Solubility In Water [1]: Insoluble

CCCC(CCC)C(=O)O [Divalproex]
Solubility In Water [1]: Slightly

COc1ccc2cc(CCC(C)=O)ccc2c1 [Nabumetone]
Bioavailability [2]: Low | Solubility In Water [1]: Insoluble

CCCC1O[C@@H]2C[C@H]3[C@@H]4CCC5=CC(=O)C=C[C@]5(C)[C@H]4[C@@H](O)C[C@]3(C)[C@]2(C(=O)CO)O1 (stereo partly shown) [Budesonide]
Bioavailability [2]: Low

O=C1NC(=O)C(c2ccccc2)(c2ccccc2)N1 [Phenytoin]
Solubility In Water [1]: Insoluble

CO/N=C(\C(=O)N[C@@H]1C(=O)N2C(C(=O)O)=C(COC(C)=O)CS[C@H]12)c1csc(N)n1 [Cefotaxime]
Solubility In Water [1]: Sparingly

CN1CCN(C2=Nc3cc(Cl)ccc3Nc3ccccc32)CC1 [Clozapine]
Solubility In Water [1]: Slightly

C[C@@H]1C[C@H]2[C@@H]3CCC4=CC(=O)C=C[C@]4(C)[C@@]3(Cl)[C@@H](O)C[C@]2(C)[C@@]1(O)C(=O)CCl [Mometasone]
Solubility In Water [1]: Insoluble

CC(=O)S[C@@H]1CC2=CC(=O)CC[C@]2(C)[C@H]2CC[C@@]3(C)[C@@H](CC[C@@]34CCC(=O)O4)[C@H]12 [Spironolactone]
Bioavailability [2]: Low | Solubility In Water [1]: Insoluble

O=C(O)Cc1ccccc1Nc1c(Cl)cccc1Cl [Diclofenac sodium]
Solubility In Water [1]: Sparingly

COc1cc2nc(N3CCN(C(=O)C4COc5ccccc5O4)CC3)nc(N)c2cc1OC (stereo not shown) [Doxazosin]
Solubility In Water [1]: Slightly

COCCCC/C(=N\OCCN)c1ccc(C(F)(F)F)cc1 [Fluvoxamine]
Solubility In Water [1]: Sparingly

Cc1ccc(-c2nc3ccc(C)cn3c2CC(=O)N(C)C)cc1 [Zolpidem]
Solubility In Water [1]: Sparingly

CCCCCc1cc(O)c2c(c1)OC(C)(C)[C@@H]1CCC(C)=C[C@@H]21 [Dronabinol]
Bioavailability [2]: Low | Solubility In Water [1]: Insoluble

CCC(C)n1ncn(-c2ccc(N3CCN(c4ccc(OCC5COC(Cn6cncn6)(c6ccc(Cl)cc6Cl)O5)cc4)CC3)cc2)c1=O (stereo not shown) [Itraconzole]
Solubility In Water [1]: Insoluble

COc1ccc(CCN2CCC(Nc3nc4ccccc4n3Cc3ccc(F)cc3)CC2)cc1 [Astemizol]
Bioavailability [2]: Low-moderate | Solubility In Water [1]: Insoluble

C=CCC1(CC(C)C)C(=O)NC(=O)NC1=O [Butalbital]
Solubility In Water [1]: Insoluble

CO[C@]12C[C@@H](COC(=O)c3cncc(Br)c3)CN(C)[C@@H]1Cc1cn(C)c3cccc2c13 [Nicergoline]
Solubility In Water [1]: Insoluble

CC(=O)OC[C@H]1O[C@@H]([S-])[C@H](OC(C)=O)[C@@H](OC(C)=O)[C@@H]1OC(C)=O.CCP(CC)CC.[Au+] [Auranofin]
Bioavailability [2]: Low | Solubility In Water [1]: Slightly soluble

Cc1cccc(Nc2ccccc2C(=O)O)c1C [Mefenamic acid]
Solubility In Water [1]: Slightly

CC(=O)N1CCN(c2ccc(OCC3COC(Cn4ccnc4)(c4ccc(Cl)cc4Cl)O3)cc2)CC1 (stereo not shown) [Ketoconazole]
Solubility In Water [1]: Insoluble

CC[C@H](C)C(=O)O[C@H]1C[C@@H](C)C=C2C=C[C@H](C)[C@H](CC[C@@H]3C[C@@H](O)CC(=O)O3)[C@H]21 [Lovastatin]
Solubility In Water [1]: Insoluble

OC(Cn1cncn1)(Cn1cncn1)c1ccc(F)cc1F [Fluconazole]
Solubility In Water [1]: Slightly

CN(C/C=C/C#CC(C)(C)C)Cc1cccc2ccccc12 [Terbinafine]
Solubility In Water [1]: Slightly

CN[C@H]1CC[C@@H](c2ccc(Cl)c(Cl)c2)c2ccccc21 [Sertraline]
Bioavailability [2]: Low

NC(=O)N1c2ccccc2C=Cc2ccccc21 [Carbamazepine]
Solubility In Water [1]: Insoluble

CC(C(=O)O)c1ccc(-c2ccccc2)c(F)c1 (stereo not shown) [Flurbiprofen]
Solubility In Water [1]: Slightly

Cc1nc2n(c(=O)c1CCN1CCC(c3noc4cc(F)ccc34)CC1)CCCC2 [Risperidone]
Solubility In Water [1]: Insoluble

Nc1ccc(O)c(C(=O)O)c1 [Mesalamine]
Bioavailability [2]: Low
